One data set deals with HL-60. Nature of the data set: Cytotoxicity against human HL-60 cells assessed as cell growth inhibition. It is filed as functional, cell-based.
Data set [1] relates to MCF7. Nature of the data set: Cytotoxicity against human MCF7 cells assessed as cell growth inhibition. It is filed as functional, cell-based.
The test system of another data set is K562. The data set is described as follows: cells. To be noted: Homo sapiens.
Another data set concerns Daudi. The data set is described as follows: Cytotoxicity against human Daudi cells assessed as cell growth inhibition. It is filed as functional, cell-based.
The subject of a further data set is AN3-CA. Nature of the data set: Cytotoxicity against human AN3-CA cells assessed as cell growth inhibition. In kind it is functional, cell-based.
For a further data set, the system named is HEC-1-A. The data set is described as follows: Cytotoxicity against human HEC-1-A cells assessed as cell growth inhibition. It is filed as functional, cell-based.
Data set [2] in a line: Cytotoxicity against mouse LL2 cells assessed as cell growth inhibition. It is filed as functional, cell-based. To be noted: Lewis lung carcinoma.
Data set [3] deals with SK-OV-3. The data set is described as follows: Cytotoxicity against human SK-OV-3 cells assessed as cell growth inhibition. In kind it is functional, cell-based.
Data set [4] is described as follows: Cytotoxicity against human MHOC-59 cell assessed as cell growth inhibition. It is filed as functional, cell-based.
In the next data set the test system is Jurkat. The data set is described as follows: Cytotoxicity against human Jurkat cells assessed as cell growth inhibition. In kind it is functional, cell-based.
The test system of another data set is DU-145. The data set is described as follows: Cytotoxicity against human DU-145 cells assessed as cell growth inhibition. In kind it is functional, cell-based.
Data set [5] is described as follows: Cytotoxicity against human IM-9 cells assessed as cell growth inhibition. It is filed as toxicity, cell-based.
Data set [6] addresses T1, Free fatty acid receptor 1 (Homo sapiens, UniProt O14842). The data set is described as follows: Positive allosteric modulation of GPR40 (unknown origin) at 100 uM assessed as maximum efficacy relative to control. To be noted: filed as positive allosteric modulator.
For data set [7], the target named is T1, Free fatty acid receptor 1. Nature of the data set: Positive allosteric modulation of GPR40 (unknown origin).
In the next data set the test system is MEF. The data set is described as follows: Cytotoxicity against mouse MEF cells assessed as cell growth inhibition incubated for 96 hrs by WST-8 assay. In kind it is functional, cell-based. On the technique in general: Tetrazolium assays rely on reduction of a dye to a coloured formazan, in cell work by metabolically active cells.
Data set [8] deals with 1-acyl-sn-glycerol-3-phosphate acyltransferase beta (Homo sapiens, UniProt O15120). The data set is described as follows: Inhibition of LPAAT-beta (unknown origin) expressed in Xenopus laevis oocytes incubated for 3 mins. It is filed as cell-based, Oocyte.
The next data set relates to HeLa. The data set is described as follows: Cytotoxicity against human HeLa cells assessed as cell growth inhibition incubated for 96 hrs by WST-8 assay. In kind it is functional, cell-based.
Data set [9] has as its system SK-OV-3. Nature of the data set: Cytotoxicity against human SK-OV-3 cells assessed as cell growth inhibition incubated for 96 hrs by WST-8 assay. It is filed as functional, cell-based. The note with it: SK-OV-3, 96 h.
Data set [10] is described as follows: Cytotoxicity against human HCO cell assessed as cell growth inhibition incubated for 96 hrs by WST-8 assay. In kind it is functional, cell-based.
Another data set deals with HEK293. Nature of the data set: Cytotoxicity against HEK293 cells assessed as cell growth inhibition incubated for 96 hrs by WST-8 assay. In kind it is functional, cell-based. To be noted: Homo sapiens, HEK293, 96 h.
Data set [11] relates to Human immunodeficiency virus 1. The data set is described as follows: Antiviral activity against NNRTI resistant HIV1 harboring Lys103Asn mutant infected in human MT4 cells assessed as reduction in virus-induced cytopathic effect measured after 5 days by MTT assay. It is filed as functional, organism-based. To be noted: Human immunodeficiency virus 1, MT4, 120 h. (In general: Protection from cytopathic effect is a common read-out in antiviral testing.)

Data set [12] concerns Human immunodeficiency virus 1. The data set is described as follows: Antiviral activity against NNRTI resistant HIV1 harboring Tyr188Leu mutant infected in human MT4 cells assessed as reduction in virus-induced cytopathic effect measured after 5 days by MTT assay. It is filed as functional, organism-based. To be noted: Human immunodeficiency virus 1, MT4, 120 h.
In data set [13] the test system is Human immunodeficiency virus 1. Nature of the data set: Antiviral activity against NNRTI resistant HIV1 LAI infected in human MT4 cells assessed as reduction in virus-induced cytopathic effect measured after 5 days by MTT assay. The note with it: Human immunodeficiency virus 1, LAI, MT4, 120 h. In kind it is functional, organism-based.
The test system of data set [14] is Human immunodeficiency virus 1. Nature of the data set: Antiviral activity against NNRTI resistant HIV1 harboring Leu100IIe mutant infected in human MT4 cells assessed as reduction in virus-induced cytopathic effect measured after 5 days by MTT assay. In kind it is functional, organism-based. The note with it: Human immunodeficiency virus 1, MT4, 120 h.
Data set [15] has as its system Human immunodeficiency virus 1. Nature of the data set: Antiviral activity against NNRTI resistant HIV1 harboring Tyr181Cys mutant infected in human MT4 cells assessed as reduction in virus-induced cytopathic effect measured after 5 days by MTT assay. It is filed as functional, organism-based. To be noted: Human immunodeficiency virus 1, MT4, 120 h.
Data set [16] addresses T2, Equilibrative nucleoside transporter 2 (Homo sapiens, UniProt Q14542).
T2 sequence (Q14542 whole entry): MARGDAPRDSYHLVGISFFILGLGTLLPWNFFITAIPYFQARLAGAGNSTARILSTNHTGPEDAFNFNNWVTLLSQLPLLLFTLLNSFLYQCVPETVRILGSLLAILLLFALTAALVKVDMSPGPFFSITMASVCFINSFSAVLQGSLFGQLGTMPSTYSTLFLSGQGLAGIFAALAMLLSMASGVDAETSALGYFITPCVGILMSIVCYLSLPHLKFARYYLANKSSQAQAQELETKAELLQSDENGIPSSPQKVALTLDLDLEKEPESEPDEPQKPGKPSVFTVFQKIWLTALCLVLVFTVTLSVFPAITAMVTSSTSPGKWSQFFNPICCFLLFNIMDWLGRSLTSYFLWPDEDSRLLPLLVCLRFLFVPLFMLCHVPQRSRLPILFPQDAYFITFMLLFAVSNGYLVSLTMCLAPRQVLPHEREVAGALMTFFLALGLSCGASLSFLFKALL
Nature of the data set: Inhibition of human ENT2 transfected in nucleoside transporter-deficient pig PK-15 cells assessed as inhibition of [3H]-uridine uptake by liquid scintillation counter analysis. In kind it is cell-based.

The target in data set [17] is T3, Equilibrative nucleoside transporter 1 (Homo sapiens, UniProt Q99808).
T3 sequence (Q99808 whole entry): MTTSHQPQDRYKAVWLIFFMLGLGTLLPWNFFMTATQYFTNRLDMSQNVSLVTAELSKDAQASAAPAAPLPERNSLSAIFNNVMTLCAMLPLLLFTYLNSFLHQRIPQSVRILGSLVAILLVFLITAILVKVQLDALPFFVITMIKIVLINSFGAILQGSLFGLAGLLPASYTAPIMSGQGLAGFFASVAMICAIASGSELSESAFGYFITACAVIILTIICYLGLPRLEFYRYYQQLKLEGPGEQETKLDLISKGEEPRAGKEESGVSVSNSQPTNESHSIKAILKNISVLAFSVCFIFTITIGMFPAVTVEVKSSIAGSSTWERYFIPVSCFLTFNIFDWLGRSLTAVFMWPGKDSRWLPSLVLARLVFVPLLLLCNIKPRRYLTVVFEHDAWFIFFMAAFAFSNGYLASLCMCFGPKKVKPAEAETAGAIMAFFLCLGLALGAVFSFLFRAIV
The data set is described as follows: Inhibition of human ENT1 transfected in nucleoside transporter-deficient pig PK-15 cells assessed as inhibition of [3H]-uridine uptake by liquid scintillation counter analysis. In kind it is cell-based.

Data set [18] concerns the target 5-hydroxytryptamine receptor 7 (Homo sapiens, UniProt P34969). The data set is described as follows: Displacement of [3H]-5Carboxyamidotryptamine from human 5-HT7R expressed in HEK293 cells by radioligand binding assay. In kind it is cell-based. On the technique in general: In a radioligand displacement assay an active substance lowers the binding of a labelled ligand.

Data set [19] has as its target T4, 5-hydroxytryptamine receptor 6 (Homo sapiens, UniProt P50406). Nature of the data set: Displacement of [3H]-LSD from human 5-HT6R expressed in HEK293 cells by radioligand binding assay. It is filed as cell-based.
Data set [20] concerns the target 5-hydroxytryptamine receptor 1A (Homo sapiens, UniProt P08908). The data set is described as follows: Displacement of […] from human 5-HT1AR expressed in HEK293 cells by radioligand binding assay. It is filed as cell-based.
Data set [21] deals with T4, 5-hydroxytryptamine receptor 6. The data set is described as follows: Displacement of [3H]-LSD from human 5-HT6R expressed in HEK293 cells assessed as binding constant by radioligand binding assay. It is filed as cell-based.
The next data set has as its target D(2) dopamine receptor (Homo sapiens, UniProt P14416). Nature of the data set: Displacement of [3H]-Raclopride from human dopamine D2 receptor expressed in HEK293 cells by radioligand binding assay. In kind it is cell-based.
A further data set relates to MDA-MB-231. Nature of the data set: Antiproliferative activity against human MDA-MB-231 cells assessed as cell growth inhibition measured after 72 hrs by MTT assay. It is filed as functional, cell-based. To be noted: MDA-MB-231, 72 h.
The next data set relates to SK-BR-3. The data set is described as follows: Antiproliferative activity against human SK-BR-3 cells assessed as cell growth inhibition measured after 72 hrs by MTT assay. To be noted: SK-BR-3, 72 h. In kind it is functional, cell-based.
The test system of another data set is MCF-10A. Nature of the data set: Antiproliferative activity against human MCF-10A cells assessed as cell growth inhibition measured after 72 hrs by MTT assay. In kind it is functional, cell-based.
Data set [22] relates to MCF7. The data set is described as follows: Antiproliferative activity against human MCF7 cells assessed as cell growth inhibition measured after 72 hrs by MTT assay. In kind it is functional, cell-based. The note with it: MCF7, 72 h.

pEC50, pIC50, pKi: −log10 of the molar value.

One may read the pIC50 as −log10 of the IC50, conventionally taken in molar units. The Emax is the size of the effect at its maximum, as opposed to the concentration needed. What is called pEC50 is the EC50 on a negative log10 scale, so that one unit is a factor of ten. Lower therefore signals a high EC50. The pKi is the negative decadic logarithm of the Ki, by convention in mol/L. High values mean a small Ki, low ones a large Ki.

Sequence of 5-hydroxytryptamine receptor 7 (P34969 whole entry): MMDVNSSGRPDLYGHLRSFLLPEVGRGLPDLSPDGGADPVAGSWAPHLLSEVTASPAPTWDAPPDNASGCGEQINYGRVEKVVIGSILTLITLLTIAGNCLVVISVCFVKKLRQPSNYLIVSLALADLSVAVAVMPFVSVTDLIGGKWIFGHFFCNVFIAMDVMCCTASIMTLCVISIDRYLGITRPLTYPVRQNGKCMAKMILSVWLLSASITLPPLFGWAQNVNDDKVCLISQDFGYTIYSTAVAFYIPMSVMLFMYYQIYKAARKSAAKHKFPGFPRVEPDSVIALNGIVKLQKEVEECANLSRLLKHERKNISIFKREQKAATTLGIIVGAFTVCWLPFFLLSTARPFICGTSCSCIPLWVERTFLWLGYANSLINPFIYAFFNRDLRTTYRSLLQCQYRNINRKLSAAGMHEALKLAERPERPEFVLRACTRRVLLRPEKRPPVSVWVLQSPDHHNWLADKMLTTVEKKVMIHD
T4 sequence (P50406 whole entry): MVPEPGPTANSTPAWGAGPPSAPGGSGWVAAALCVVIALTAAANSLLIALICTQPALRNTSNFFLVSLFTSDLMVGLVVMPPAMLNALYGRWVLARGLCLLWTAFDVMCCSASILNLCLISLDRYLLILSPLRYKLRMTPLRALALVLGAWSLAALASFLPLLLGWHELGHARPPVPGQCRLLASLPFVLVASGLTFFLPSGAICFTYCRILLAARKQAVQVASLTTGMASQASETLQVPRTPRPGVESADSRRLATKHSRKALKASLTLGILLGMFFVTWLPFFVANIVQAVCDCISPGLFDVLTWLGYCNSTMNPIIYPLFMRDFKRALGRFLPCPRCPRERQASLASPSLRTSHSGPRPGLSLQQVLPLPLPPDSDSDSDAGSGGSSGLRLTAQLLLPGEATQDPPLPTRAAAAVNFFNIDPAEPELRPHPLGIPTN
T1 sequence (O14842 whole entry): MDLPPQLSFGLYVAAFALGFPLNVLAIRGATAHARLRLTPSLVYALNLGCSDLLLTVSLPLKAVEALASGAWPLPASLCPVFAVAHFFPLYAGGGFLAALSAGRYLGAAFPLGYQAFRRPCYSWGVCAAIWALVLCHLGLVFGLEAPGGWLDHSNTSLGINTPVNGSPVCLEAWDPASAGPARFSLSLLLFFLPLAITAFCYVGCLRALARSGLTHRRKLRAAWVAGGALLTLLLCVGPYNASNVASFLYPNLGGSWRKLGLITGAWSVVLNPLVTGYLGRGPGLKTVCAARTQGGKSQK
Sequence of D(2) dopamine receptor (P14416 whole entry): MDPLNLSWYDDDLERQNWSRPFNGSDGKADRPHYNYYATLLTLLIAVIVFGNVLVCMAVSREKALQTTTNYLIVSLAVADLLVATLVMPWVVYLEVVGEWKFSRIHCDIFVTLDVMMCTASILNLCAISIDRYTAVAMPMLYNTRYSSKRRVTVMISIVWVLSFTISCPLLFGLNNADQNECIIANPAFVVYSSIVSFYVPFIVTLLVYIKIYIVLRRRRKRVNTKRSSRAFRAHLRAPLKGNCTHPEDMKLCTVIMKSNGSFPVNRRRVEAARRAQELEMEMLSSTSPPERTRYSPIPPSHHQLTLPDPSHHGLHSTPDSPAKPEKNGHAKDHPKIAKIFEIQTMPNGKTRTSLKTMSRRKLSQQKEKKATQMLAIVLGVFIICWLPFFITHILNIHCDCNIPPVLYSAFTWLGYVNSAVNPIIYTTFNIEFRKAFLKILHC
Sequence of 5-hydroxytryptamine receptor 1A (P08908 whole entry): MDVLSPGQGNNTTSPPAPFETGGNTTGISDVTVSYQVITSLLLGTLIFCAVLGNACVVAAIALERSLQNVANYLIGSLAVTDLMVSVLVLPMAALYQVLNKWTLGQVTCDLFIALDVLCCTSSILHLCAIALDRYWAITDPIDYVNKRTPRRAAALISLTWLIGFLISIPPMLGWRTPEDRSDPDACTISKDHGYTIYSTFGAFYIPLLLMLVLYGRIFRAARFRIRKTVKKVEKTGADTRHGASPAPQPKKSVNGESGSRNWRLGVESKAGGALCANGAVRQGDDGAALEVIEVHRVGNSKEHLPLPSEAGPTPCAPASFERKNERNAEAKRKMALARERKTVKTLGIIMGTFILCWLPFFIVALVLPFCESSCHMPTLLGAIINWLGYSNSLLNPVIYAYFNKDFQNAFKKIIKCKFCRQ
Sequence of 1-acyl-sn-glycerol-3-phosphate acyltransferase beta (O15120 whole entry): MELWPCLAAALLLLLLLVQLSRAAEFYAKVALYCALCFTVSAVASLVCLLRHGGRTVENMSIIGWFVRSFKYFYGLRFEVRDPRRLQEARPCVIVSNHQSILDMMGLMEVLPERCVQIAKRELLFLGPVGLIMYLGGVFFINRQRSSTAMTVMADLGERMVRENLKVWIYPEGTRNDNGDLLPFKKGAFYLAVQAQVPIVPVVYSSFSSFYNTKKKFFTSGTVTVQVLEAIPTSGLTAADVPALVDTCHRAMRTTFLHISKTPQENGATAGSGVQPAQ
Description for K562: Cytotoxicity against human K562 cells assessed as cell growth inhibition

`CCOc1ccc(Cl)cc1-c1nc(N)nc(Nc2ccc(Cl)cc2)n1`: the negative-log IC50 (pIC50) was 7.52 with HL-60; 7.30 in the data set on MCF7 [1]; 7.52 in the data set on K562; 8.00 with Daudi; 7.48 in the data set with AN3-CA; 7.27 in the data set with HEC-1-A. Further, the pIC50 in data set [2] is 7.70; with SK-OV-3 [3], 7.49; in data set [4] it was 7.10; in the data set on Jurkat, 7.52; with DU-145 it was 7.52; in [5] it was 7.70.
In the case of `Cc1ccccc1Nc1nc(N)nc(COc2ccc3c(C)cc(=O)oc3c2)n1`, the Emax in data set [6] was 134%. In [7], this molecule showed a pEC50 of 6.11.
On to `CCc1c(-c2nc(N)nc(Nc3ccc(C)cc3)n2)oc2ccccc12`, for which the negative-log IC50 (pIC50) in the data set with MEF was 7.21; in data set [8], 8.08; in the data set on HeLa, 6.85; in the data set with SK-OV-3 [9], 6.75; in data set [10], 6.99; in the data set with HEK293, 7.29.
In the case of `Cc1cc(C)c(Cc2nc(N)nc(Nc3ccc(C#N)cc3)n2)c(C)c1`, the pIC50 in data set [11] was 8.52; in data set [12], 7.35; in data set [13], 9.10; in [14], 7.09; in data set [15], 7.82.
Turning to `Cc1cccc(Nc2nc(N)nc(CN3CCN(c4ccc(F)cc4)CC3)n2)c1`, the figures for the pIC50 in data set [16] and in data set [17] were 6.24 and 5.62, respectively.
Take `CCC(Oc1cc(Cl)ccc1Cl)c1nc(N)nc(N2CCN(C)CC2)n1` (centres undefined): the negative logarithm of the Ki (pKi) in [18] is 5.24.
In the case of `COc1ccc(Nc2nc(N)nc(CN3CCN(c4ccccc4F)CC3)n2)cc1`, the pIC50 in [16] is 4.11; in [17] it was 6.23.
In turn, `CC(Oc1ccccc1Cl)c1nc(N)nc(N2CCN(C)CC2)n1` (centres undefined) gave a pKi in [19] of 7.55.
As for `CN1CCN(c2nc(N)nc(Cc3c[nH]c4ccccc34)n2)CC1`, the negative-log Ki (pKi) was 5.02 in data set [20], 4.77 in data set [18] and 5.71 at D(2) dopamine receptor. Also, the Kb in [21] is 18 nM.
In the case of `COc1cc(-c2nc(N)nc(Nc3ccc(C)cc3)n2)cc(OC)c1OC`, the negative logarithm of the IC50 (pIC50) with MDA-MB-231 is 9.00; in the data set on SK-BR-3 it was 6.68; with MCF-10A, less than 4.70; in the data set with MCF7 [22], less than 4.70.

The values are drawn from ChEMBL document CHEMBL5214932, “A closer look at N2,6-substituted 1,3,5-triazine-2,4-diamines: Advances in synthesis and biological activities” (Eur J Med Chem, 2022).
